From patent EP4717275A1, “ANTI-LUNG CANCER COMBINED DRUG AND USE THEREOF” (Gunagdong Yinzhu Pharmaceutical Technology Co., Ltd, priority 2023, dated 2024)

Tested on: human lung cancer NCI-H1975 xenografts
Assay: Therapeutic effect in vivo on NCI-H1975 xenografts in nude mice
Set-up: species or system BALB/c Nude mice
Conditions: PO; for Relative tumor proliferation rate(%) Day 21: %T/CRTV; for Tumor growth inhibition rate(%) Day 21: %TGITV from tumor volume vs control; for Tumor inhibition rate(%) Day 21: %TGITW from tumor weight vs control; for Tumor volume (mm^3,Mean±SEM) Day 21: QD×21, dose per group; for Relative tumor volume Day 21: RTV = Vt/V0, Mean ± SEM
Procedure: BALB/c Nude mice, female, 8-10 weeks old, 18-20g. […] Table 2 Experimental design of therapeutic effect of the drugs in vivo […] NCI-H1975 cells were cultured in RPMI 1640 medium supplemented with 10% FBS and maintained in a 37°C, 5% CO2 humidified incubator. Log-phase NCI-H1975 cells were harvested, resuspended in RPMI 1640 basal medium containing 50% Matrigel, and adjusted to a concentration of 2 × 10^7 cells/mL. Under aseptic conditions, 0.1 mL of the cell suspension was injected subcutaneously into the right flank of mice at a concentration of 2 × 10^6 cells/0.1 mL/mouse. […] The grouping day was designated as Day 0, and administration commenced according to animal body weight. […] Animal body weight and tumor volume were measured twice weekly throughout the experiment. Tumor length and width were measured using a digital caliper, with tumor volume estimated from these measurements. After the final weighing on Day 21, remaining animals were euthanized with CO2. Tumors were weighed, photographed, and the experiment concluded. […] Tumor growth inhibition rate (%TGITV) is calculated as: […] Relative Tumor Volume (RTV) is calculated as Vt/V0, where V0 is the tumor volume at grouping and Vt is the tumor volume at each measurement. Relative Tumor Growth Rate (%T/CRTV) is calculated as TRTV/CRTV × 100%, where TRTV is the RTV of the treatment group and CRTV is the RTV of the negative control group. Tumor growth inhibition rate (%TGITW) is calculated as: ([…] × 100%, where TWc is the average tumor weight in the negative control group and TWT is the average tumor weight in the treatment group. […] Drug-related animal mortality exceeding 20% indicates severe toxicity at that dose. All experimental data in this study are expressed as Mean ± SEM. The evaluation of the combination index (CI) of drugs relies on the following equation: […]), wherein E(A+B) is the inhibition rate of combination drug, EA and EB is the inhibition rate of drug A and drug B respectively. E(A+B) in the equation represents 'measured synergistic effect' and (EA+EB-EA×EB) is 'expected synergistic effect'. CI=0.85-1.15 indicates a mere addition of the effect of two drugs, >1.15 indicates enhancement (or synergy), and <0.85 indicates antagonism. • Combination index of tumor growth inhibition: CAI, 40mg/kg + AZD9291, 1mg/kg: 1.27; […] CAI, 40mg/kg + AZD9291, 1mg/kg: 1.20; […]

[1] = QD×21, listed as Comparative Example 2
[2] = QD×21, listed as Comparative Example 3

NC(=O)c1nnn(Cc2cc(Cl)c(C(=O)c3ccc(Cl)cc3)c(Cl)c2)c1N [CAI, 5-Amino-1-[3,5-dichloro-4-(4-chlorobenzoyl chloride)benzyl]-1H-1,2,3-triazole-4-benzamide]
Relative tumor proliferation rate(%) Day 21 [1]: 93.04%
Relative tumor proliferation rate(%) Day 21 [2]: 93.23%
Tumor growth inhibition rate(%) Day 21 (QD×21): 12.99%
Tumor growth inhibition rate(%) Day 21 [2]: 12.33%
Tumor inhibition rate(%) Day 21 [1]: 15.76%
Tumor inhibition rate(%) Day 21 [2]: 7.06%
Tumor volume (mm^3,Mean±SEM) Day 21 (listed as Comparative Example 2): 1536.24 ±222.57 mm^3
Tumor volume (mm^3,Mean±SEM) Day 21 (listed as Comparative Example 3): 1547.91 ±221.67 mm^3
Tumor weight (g,Mean±SEM) Day 21 [1]: 1.384 ± 0.266 g
Tumor weight (g,Mean±SEM) Day 21 [2]: 1.527 ± 0.257 g
Relative tumor volume Day 21 [1]: 10.03 +1.27
Relative tumor volume Day 21 [2]: 10.05 ±1.30
